Columns and labels:
[1] = biological target: T1, CRP (Homo sapiens, UniProt P02741); assay: Roche immunoturbidimetric assay: pure CRP; type: binding; set-up: The final concentrations were 0.73 μM native pentameric CRP; from tissue
T1 sequence (P02741 19-224): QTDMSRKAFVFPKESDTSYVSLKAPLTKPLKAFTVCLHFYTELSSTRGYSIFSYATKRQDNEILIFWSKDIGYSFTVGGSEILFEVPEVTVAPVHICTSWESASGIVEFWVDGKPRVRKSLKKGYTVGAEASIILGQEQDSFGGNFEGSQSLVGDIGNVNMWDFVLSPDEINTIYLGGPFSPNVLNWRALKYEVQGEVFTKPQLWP
Procedure: (i) Human CRP at ˜90 μg/ml (3.9 μM monomer or 0.78 μM pentamer) in TC buffer was prepared from a stock solution; a 75 μl aliquot was used in the assay.
(ii) Compounds were prepared from stock solutions at up to 10 mM in TC (labelled S1). They were serially diluted with TC buffer (100 μl ligand+200 μl TC) to provide up to 9 dilutions, S2-S10. A TC buffer control (S0) was included in each assay.
(iii) A 15 μl volume of each ligand solution was incubated with 75 μl of CRP for 1 h at 37° C. The final concentrations were CRP pentamer=0.73 μM, ligands S1-S10=625-0.03 μM, corresponding to ligand:CRP pentamer ratios of 853-0.04.
(iv) CRP concentrations were measured by the Roche microparticle-enhanced immunoturbidimetric assay (10) on the COBAS MIRA autoanalyser, and results expressed as a percentage of the CRP control.
(v) Data were plotted using Sigmaplot (V14) using the 4 parameter logistic curve y=min+(max−min)/(1+(x/EC50)^−Hill slope) to calculate EC50.
(vii) All compounds were assayed in comparison with a highly purified preparation of BPC8, that was prepared by Carbogen AMCIS AG, dissolved in sterile water and diluted into TC buffer as required.
The immunoturbidimetric CRP assay on the Roche COBAS MIRA Plus autoanalyser, utilises two different sized microparticles that are covalently coupled with two different monoclonal antibodies, which recognise different CRP epitopes. The assay was developed by Roche for clinical measurement of CRP serum and plasma with high sensitivity and a very wide dynamic range. Serendipitously, one of the two antibodies binds to an epitope present on the ligand binding B-face of CRP. Thus, when the binding pocket is occupied by ligand and, especially, when the B-face is occluded by the B-face to B-face interaction of two native CRP pentamers produced by cross linking via our unique bivalent ligands, the assay fails to detect the CRP. In contrast, the CRP is all detected and assayed normally by other assays that disrupt the crosslinking and/or use antibodies which recognise different, non-occluded, epitopes. Inhibition of CRP recognition in the Roche assay is thus a convenient tool to monitor the efficacy and potency of complex formation between our unique ligands and CRP.

[2] = biological target: T1, CRP; set-up: The final concentrations were 0.73 μM native pentameric CRP; from tissue; conditions: rats undergoing coronary artery ligation and receiving human CRP; cited from earlier work
[3] = In vivo clearance of ligand; conditions: male, C57BL/6, mouse, serum, 0.5 mg; mice, intravenous; read-out: half-life (t1/2) of ligand in mouse circulation
Procedure: (i) Ligand (0.5 mg/animal) dissolved in PBS or saline (200 μl) was injected intravenously into the tail vein of six male; 23-27 week old wild-type C57BL/6 mice. Up to two blood samples plus a terminal sample per mouse were collected at each time point up to 180 minutes.
(ii) Serum was prepared and ˜200 ng of internal standard (either ^2H4-BPC6 or BPC9) added. Serum proteins were precipitated with 4 volumes of either ice cold methanol or acetonitrile. The supernatant was dried under vacuum and re-dissolved in 0.1% v/v aqueous formic acid. (iii) Samples were chromatographed on a Phenomenex Aqua column using a gradient of 0.1% v/v formic acid-60% v/v acetonitrile in formic acid, and the eluate passed into the positive ion source of a Quattro II triple quadrupole mass spectrometer. The MRM transitions used were m/z 449.3→390.2 and 453.→394.2 (BPC6) and m/z 477.3→418.3, […] (BPC8).
(iv) Ligand concentrations were measured against an extracted standard curve and were plotted using Sigmaplot (v14) and fitted to a 2-parameter exponential decay.

[4] = biological target: T1, CRP; assay: Size exclusion chromatography of CRP/ligand cross linking; type: binding; set-up: The final concentrations were 0.73 μM native pentameric CRP; from tissue
Procedure: (i) Ligands were diluted to 0.5 mM in TC buffer from up to 10 mM stocks. Serial dilutions were prepared as required. […]
(iii) The complex was chromatographed on a Superdex200 column (10/300 GL; 24 ml bed volume), connected to the ÅKTA100 Explorer HPLC system, and equilibrated and eluted in TC buffer at 0.5 ml/min. Eluates were monitored at 280 nm and fractions (0.5 ml) collected as required.
Size exclusion chromatography on a Superdex 200 column equilibrated and eluted with TC buffer pH 8.0, and calibrated with standard globular marker proteins and with human CRP, the native CRP pentamer (Mr 115 kDa) eluted at 13.9 ml (range 13.7-14.0 ml, n=10).

[5] = biological target: T1, CRP; assay: Rat acute myocardial infarction model (coronary artery ligation) with human CRP; type: in vivo; set-up: The final concentrations were 0.73 μM native pentameric CRP; from tissue; conditions: rats; ischaemia reperfusion and terminal coronary artery ligation; unpublished observations
Excerpt: Human CRP and activated rat complement were deposited in and around the infarct and the exacerbation of tissue damage was absolutely complement dependent. Similar observations were made in the middle cerebral artery occlusion model of stroke in rats (3).
The design of the first small molecule inhibitor of CRP binding for use in vivo, bis(phosphocholine)hexane (BPC6), enabled conclusive confirmation of the pathogenic role of human CRP in exacerbating tissue damage after ischaemic infarction (4).

[6] = biological target: T1, CRP; assay: In vivo clearance of CRP/ligand complexes generated in vivo in mice; set-up: The final concentrations were 0.73 μM native pentameric CRP; from tissue
Procedure: (i) Two groups of 8 wild-type C57BL/6 mice (male; 23-27 weeks old) were used: group 1 (control) and group 2 (treated).
(ii) Both groups of animals were given 200 μl of human CRP (5 mg/ml in azide-free TC buffer) subcutaneously on day 1.
(iii) On day 2 (+18 h), control animals were given a 200 μl intravenous bolus of TC buffer. Treated animals were given a 200 μl iv bolus of ligand (prepared at 5 mg/ml in TC buffer).
(iv) One timed blood sample and a terminal blood sample were collected from each mouse into heparinised tubes and weighed. This generated data in quadruplicate at 4 time points, normally 30, 60, 120 and 360 minutes.
(v) ^125I radiolabel was measured (Perkin Elmer Wizard; protocol #1) in whole blood to quantify total CRP. In some cases, electroimmunoassay as above was also used to determine total CRP concentration.
(vi) Plasma was prepared and free CRP determined by Roche immunoassay.
Subcutaneous injection of human CRP provided circulating CRP concentrations with which to test for effects of our ligands in vivo. (Table 4).

[7] = biological target: T1, CRP; assay: Immobilised phosphocholine plate assay (125I-CRP binding); set-up: The final concentrations were 0.73 μM native pentameric CRP; from tissue; conditions: read-out: IC50 for inhibition of 125I-CRP binding to immobilised phosphocholine
Procedure: (i) Phosphocholine was immobilised on Greiner NHS-activated microtitre plates by incubation with 4-aminophenyl-1-phosphocholine. Remaining active sites were blocked by incubation with 4% w/v BSA in TC buffer (TCB).
(ii) Human CRP at 1 μg/ml in TC buffer was spiked with ^125I-labelled CRP to provide 10^6 cpm/ml.
(iii) Compounds were prepared from up to 10 mM stock solutions by dilution in TC buffer to 0.5 mM (labelled S1). Serial dilutions were prepared by diluting 100 μl ligand solution with 200 μl TC buffer (S2-S10). A ligand-free control was also used (SO, TC only).
(iv) A 100 μl volume of CRP solution was incubated with 10 μl of each compound (S1-S10, SO) for 1 h at room temperature without stirring, to provide final ligand concentrations across the range 45.5 μM-6.9 nM with a ligand:CRP monomer molar ratio of 1151-0.06. In some cases, single fixed ligand concentrations were also assayed in comparison with PC.
(v) A 100 μl volume of each CRP-ligand mixture was added to the plate wells and incubated for 2 h at room temperature. Solutions were then discarded and the plates washed with TCB buffer. Bound radioactivity was measured (1 min counts) using a gamma counter (Perkin Elmer Wizard 2470).
(vi) Data were plotted with Sigmaplot v14 software using the 4-parameter logistic curve y=min+(max−min)/(1+(x/EC50)^−Hill slope) to calculate IC50.

Row | IC50 ([1]; pure CRP in TC buffer, read-out: IC50 (μM), SD, inhibition of Roche CRP immunoreactivity) [µM] | half-life [3] [min] | Stable to rechromatography ([4]; CRP/ligand complex re-chromatographed in absence of free ligand) | CRP elution volume from Superdex 200 after pre-incubation with ligand ([4]; native CRP pentamer elutes at 13.9 ml) [mL] | Protective effect against human CRP pathogenicity [5] | Time by which Roche value was the same as in control mice ([6]; i.v. bolus 1 mg 18 h after s.c. CRP) [h] | excess of ligand over CRP pentamer causing 50% reduction of immunoreactivity [1] [fold] | IC50 [7] [µM] | SMILES | Effect on increased tissue damage caused by human CRP [2] | Effect on detection of circulating CRP in the Roche assay ([6]; i.v. bolus 18 h after s.c. CRP (1 mg))
1 | 4.7 | 16.1 | – | – | – | – | – | – | C[N+](C)(C)CCOP(=O)([O-])OCCCCCCOP(=O)([O-])OCC[N+](C)(C)C [BPC6, bis(phosphocholine)hexane] | completely abrogated the increased damage | –
2 | – | 15.4 | No | 12.6 | same protective effect | ≤ 3 | 2.5 | 2.2 | C[N+](C)(C)CCOP(=O)(O)OCCCCCCCCOP(=O)(O)OCC[N+](C)(C)C [BPC8, 1,8-bis(phosphocholine)-octane, reference compound] | – | immediately blocked detection of circulating CRP
